Results published in patent publication US20060228301A1, “Methods and compositions for determining targeted drug sensitivity and resistance in a cancer subject” (priority 2005, published 2006).

Tests used:
[1] = system: rat neuroblastoma (C6) cells; test: ratio of [1-13C1]-D-ribose to [1,2-13C2]-D-ribose (m1/m2) in cultured cells contacted with [1,2-13C2]-D-glucose; type: cell-based; conditions: untreated ratio 2.35
Description: FIG. 6 depicts the results of in culture studies comparing the ratio of [1-^13C1]-D-ribose to [1,2-^13C2]-D-ribose in rat neuroblastoma (C6) cells which are sensitive to imatinib treatment. The increased ratio of m1/m2 ^13C in ribose indicates sensitivity to Gleevec, which is further increased by Hydroxyurea treatment, which is a well known chemotherapeutic agent for the treatment of various human cancers. The set of vertical bars on the left are observed values of m1 and the set of vertical bars on the right are observed values of m2. The calculated ratios of m1/m2 are provided above the horizontal lines.
(§1) When the ratio of [1-^13C1]-D-ribose to [1,2-^13C2]-D-ribose is less than 1 (e.g., 0.5) the patient is at risk of having a reduced response to treatment with a cancer therapeutic such as imatinib. The increased risk of developing a reduced response to imatinib includes any increased risk. In embodiments of the invention, the increased risk is about a 10% decrease in the ratio described above indicating the risk of developing imatinib resistance. In other embodiments, the increased risk is indicated by about a 10%, 15%, 20%, 25%, 50%, 75%, 85%, 90%, 95%, 98%, 99%, or 99.9% decrease in the ratio of [1-^13C1]-D-ribose to [1,2-^13C2]-D-ribose. […]

[2] = system: cultured myeloid (K-562) cells from patients with chronic myeloid leukemia; test: ratio of [1-13C1]-D-ribose to [1,2-13C2]-D-ribose (m1/m2) in cultured CML myeloid cells exposed to Gleevec, ribose mass spectral analysis; type: cell-based, human; conditions: myeloid cells from two patients resistant to Gleevec, increasing concentrations of Gleevec; cut off 0.65 for resistance
Description: FIG. 5 depicts the results of studies comparing the ratio of [1-^13C1]-D-ribose to [1,2-^13C2]-D-ribose in cultured myeloid cells from patients with chronic myeloid leukemia using increasing concentrations of Gleevec (“x” axis). The set of vertical bars on the left are observed values of m1 and the set of vertical bars on the right are observed values of m2. The calculated ratios of m1/m2 are provided above the horizontal lines. In this experiment, a cut off point of 0.65 to detect resistance was used to identify Gleevec resistance. Cells from two patients resistant to Gleevec have m1/m2 ratios below 0.65, as indicated by an asterisk.
as §1

K562r cells = conditions: high doses; cited from earlier work
LAMA84r cells = conditions: high doses; cited from earlier work

## Cc1ccc(NC(=O)c2ccc(CN3CCN(C)CC3)cc2)cc1Nc1nccc(-c2cccnc2)n1 [Gleevec, imatinib]
[1]; 3.0 μM Gleevec
  ratio of [1-13C1]-D-ribose to [1,2-13C2]-D-ribose (m1/m2): 2.97
[2]
  m1/m2 ratio: below 0.65
K562r cells
  response to Gleevec treatment: do not respond well even to high doses
LAMA84r cells
  response to Gleevec treatment: do not respond well even to high doses

## NC(=O)NO [hydroxyurea]
[1]; 100 μM hydroxyurea
  ratio of [1-13C1]-D-ribose to [1,2-13C2]-D-ribose (m1/m2): 3.59
